PubChem BioAssay (NCI)
Values joined by “and” are separate entries in the source; they are usually repeats but may differ in a detail not shown here. Equal entries are not always repeated.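 Following 48 hours of exposure in 96-well plates, responses at five concentrations were used to interpolate endpoints linearly. Abbreviation: GI50, concentration required for 50% inhibition of growth. TGI: total growth inhibition.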

What was measured:
Assay in all cases: NCI-60 cell line screen, 48 h
SK-MEL-28 melanoma = test system: SK-MEL-28 melanoma
EKVX NSCLC = test system: EKVX NSCLC
SK-MEL-2 melanoma = test system: SK-MEL-2 melanoma
NCI-H23 lung = test system: NCI-H23 lung
OVCAR-4 ovarian = test system: OVCAR-4 ovarian
SF-295 CNS = test system: SF-295 CNS
U251 CNS = test system: U251 CNS
HS 578T breast = test system: HS 578T breast
786-0 renal = test system: 786-0 renal
RPMI-8226 leukemia = test system: RPMI-8226 leukemia

Row | Structure (SMILES) | GI50 (SK-MEL-28 melanoma) [µM] | TGI (SK-MEL-28 melanoma) [µM] | GI50 (EKVX NSCLC) [µM] | TGI (EKVX NSCLC) [µM] | GI50 (SK-MEL-2 melanoma) [µM] | TGI (SK-MEL-2 melanoma) [µM] | GI50 (NCI-H23 lung) [µM] | TGI (NCI-H23 lung) [µM] | GI50 (OVCAR-4 ovarian) [µM] | TGI (OVCAR-4 ovarian) [µM] | GI50 (SF-295 CNS) [µM] | TGI (SF-295 CNS) [µM] | GI50 (U251 CNS) [µM] | TGI (U251 CNS) [µM] | GI50 (HS 578T breast) [µM] | TGI (HS 578T breast) [µM] | GI50 (786-0 renal) [µM] | TGI (786-0 renal) [µM] | GI50 (RPMI-8226 leukemia) [µM] | TGI (RPMI-8226 leukemia)
1 | COc1cccc(/C=N/NC(=O)c2ccccc2N2CCCC2)c1O | 5.27 | > 100 | 3.32 | > 100 | 54 | > 100 | 7.85 | > 100 | 2.63 | > 100 | 4.88 | > 100 | 4.27 | > 100 | 10.3 | 68.8 | 3.58 | > 100 | 3.74 | > 100 µM
2 | [Cl][Hg][c]1ccc(Cl)s1 | 1.42 | 2.87 | 5.72 | 20.2 | 4.65 | 17.6 | 2.69 | 8.05 | 1.76 | 4.78 | 11.5 | 25.7 | 0.91 | 2.71 | 4.41 | 73.7 | 1.29 | 2.61 | 2.23 | 6.58 µM
3 | CC1(C)CC[C@]2(C(=O)O)CC[C@]3(C)C(=CC[C@@H]4[C@@]5(C)C[C@H](O)[C@H](O)[C@@](C)(C(=O)O)[C@@H]5CC[C@]43C)[C@@H]2C1 | – | > 100 | – | > 100 | – | > 100 | – | > 100 | – | > 100 | – | > 100 | – | > 100 | – | > 100 | – | > 100 | – | > 100 µM
4 | COc1cc2c(c(OC)c1OC)-c1ccc(OC)c(=O)cc1[C@@H](NC(C)=O)CC2 | – | > 625 | 16.7 | > 625 | 0.48 | – | – | – | – | > 100 | – | – | – | – | – | > 100 | – | > 100 | – | > 100 µM and 217 µM
5 | CCCCCCCCCCCCSC1=C(Cl)C(=O)C(OC)=C(OC)C1=O | 5.93 | 21.8 | 1.61 | > 29.5 | 4.36 | 14.8 | 3.36 | 20.2 | 3.81 | 26.6 | 2.03 | 7 | 1.57 | 12.2 | 2.76 | 7.96 | 4.18 | 19.2 | 0.239 | 3.7 µM
6 | O=C(/C(=C/c1ccc([N+](=O)[O-])cc1)SCc1ccc(Cl)cc1)c1ccc(F)cc1 | 4.26 | 16.2 | 3.78 | 15.2 | 7.9 | 23.1 | 3.92 | 21.9 | 3.11 | 13.9 | 4.02 | 14.4 | 1.74 | 3.17 | 2.42 | 7.68 | 2.66 | 7.9 | 0.81 | 4 µM
7 | c1ccc2cc(NCNc3ccc4ccccc4c3)ccc2c1 | – | > 88.9 | – | 65.5 | – | 32.1 | – | 30.5 | – | 26.6 | – | 33.9 | – | 93.6 | – | > 100 | – | 40.8 | – | 29.1 µM
8 | Cc1ccc(-c2cc3c4c(nc5ccccc53)C(=O)c3cccnc3-c4n2)cc1 | 19.1 | 41.1 | 23.4 | 59.1 | 15 | 38 | 7.03 | 20.9 | 15.6 | 73.8 | 12.4 | 25.7 | 9.51 | > 66.9 | 18.3 | 43.8 | 18.2 | 52.5 | 4.18 | 54.9 µM
9 | CCCCCCCCCCCC(=O)N1CCN(C(C)=O)CC1 | – | – | 33.5 | > 100 | 19.2 | 35.7 | 19.5 | 40.8 | 32.8 | > 100 | 26.6 | 63 | 50.5 | > 100 | 21.5 | 48.4 | 16.9 | 31.1 | 16.8 | 35.7 µM
10 | C[C@]12CC[C@@H]3c4cc(OC(F)F)c(OS(N)(=O)=O)cc4CC[C@H]3[C@@H]1CC[C@@H]2OS(N)(=O)=O | 2.94 | 20.3 | 1.7 | 22.5 | 2.79 | 24.9 | 2.44 | 21.6 | 5.33 | 29.5 | 1.04 | 3.14 | 1.83 | 20.2 | 1 | 16.1 | 1.8 | 16.5 | 1.03 | 35.4 µM
11 | CCN1C(=O)N(CC)C2C1NN=c1s/c(=C\c3ccco3)c(=O)n12 (stereo unspecified) | > 22.8 | > 100 | 1.7 | > 100 | 0.84 | > 100 | 1.1 | > 100 | 4.24 | > 100 | 0.47 | > 44.6 | 0.576 | > 100 | 0.459 | > 100 | 0.571 | > 100 | 0.438 | > 100 µM
12 | O=C(NC(=O)c1ccccc1[N+](=O)[O-])Nc1ccc(Oc2ncc(Cl)cn2)c([N+](=O)[O-])c1 | – | – | – | > 100 | – | > 100 | – | > 28 | – | > 100 | – | – | – | > 88.6 | – | 0.636 | – | > 100 | – | > 100 µM
13 | CONC(C)=O | – | > 100 | – | > 100 | – | > 100 | – | > 100 | – | – | – | > 100 | – | > 100 | – | > 100 | – | > 100 | – | > 100 µM
14 | N#Cc1c(N2CCOCC2)nc(=S)[nH]c1-c1ccccc1 | 20.5 | > 100 | 20.2 | > 100 | 4.5 | > 100 | 34.5 | > 100 | 65.7 | > 100 | – | – | 60.1 | > 100 | 7.65 | 60.7 | 14.1 | > 100 | 13.3 | > 100 µM
